{"source": "patent US20040019121A1", "about": "“Protein prenyl transferase inhibitors in the treatment of neuroinflammatory disease” (priority 2000, published 2004)", "key": {"[1]": {"test_system": "brain endothelial cell monolayers (GP8/3.9)", "assay": "T-lymphocyte transendothelial migration through brain endothelial cell monolayers", "format": "cell-based, rat", "protocol": "(§1) The immortalised Lewis rat brain endothelial cell line GP8/3.9 (Greenwood et al., 1996) was maintained in Ham's F-10 medium supplemented with 17.5% FCS, 7.5 μg/ml endothelial cell growth supplement, 80 μg/ml heparin, 2 mM glutamine, 0.5 μg/ml vitamin C, 100 U/ml penicillin and 100 μg/ml streptomycin.\nLewis rat T-lymphocyte cell lines specific for purified myelin basic protein were prepared as previously described (Pryce et al, 1997). Briefly, lymph nodes were collected from bovine MBP-immunised rats and the T-lymphocytes propagated by periodically alternating antigen activation with IL-2 stimulation. The cell lines express the marker of the CD4^+ T cell subset, are CD45RC^low and recognise MBP in the molecular context of MHC class II determinants (Pryce et al, 1997).\nThe ability of the immortalised cells to support the transendothelial migration of antigen specific T-lymphocytes was determined using a well-characterised assay as described extensively elsewhere (Adamson et al., 1999 and http://www.ucl.ac.uk/ioo/video/ sequence.avi) Briefly, T-lymphocytes were added (2×10^5 cells/well) to 24 well plates containing endothelial cell monolayers. Lymphocytes were allowed to settle and migrate over a 4 h period. To evaluate the level of migration co-cultures were placed on the stage of a phase-contrast inverted microscope housed in a temperature controlled (37° C.), 5% CO2 gassed chamber (Zeiss, Herts, U.K.). A 200×200 μm field was randomly chosen and recorded for 10 min spanning the 4 h time point using a camera linked to a time-lapse video recorder. Recordings were replayed at 160× normal speed and lymphocytes identified and counted which had either adhered to the surface of the monolayer or that had migrated through the monolayer. Lymphocytes on the surface of the monolayer were identified by their highly refractive morphology (phase-bright) and rounded or partially spread appearance. In contrast cells that had migrated through the monolayer were phase-dark, highly attenuated and were seen to probe under the endothelial cells in a distinctive manner (Pryce et al, 1997; Adamson et al, 1999: Etienne et al, 2000). All other data were expressed as a percentage of the control migrations. A minimum of three independent experiments using a minimum of 6 wells per assay were performed. The results are expressed as the means±SEM and significant differences between groups determined by Student±s t-test."}, "brain endothelial cells": {"test_system": "brain endothelial cells", "assay": "Adhesion of peripheral lymph node T-lymphocytes to brain endothelia", "format": "cell-based, rat", "conditions": "10 μM", "protocol": "as §1\nAdhesion assays were carried out as previously described (Pryce et. al., 1994; Adamson et al., 1999). Briefly, peripheral lymph node-derived cells (PLNC) were isolated and T-lymphocytes obtained after purification on nylon wool columns. These cells which represent non-antigen activated T-lymphocytes are therefore non-migratory but highly adhesive when activated with the mitogen concanavalin A (Pryce et al., 1994, Greenwood and Calder 1993; Male et al., 1994 ). PLNC were activated for 24 h with type V concanavalin A, washed twice in HBSS, and cells labelled with 3 μCi [^3H]-deoxy glucose per 10^6 cells in HBSS for 90 min at 37° C. After washing the cells three times with HBSS they were resuspended in RPMI 1640 medium containing 10% FCS. Endothelial monolayers grown on 96 well plates were prepared by removing the culture medium and washing the cells four times with HBSS. 200 μl of [^3H]-labelled PLNC at a concentration of 1×10^6/ml were then added to each well and incubated at 37° C. for 1.5 h. In each assay, β-emissions from each of 6 replicate blank wells were determined to provide a value for the total amount of radioactivity added per well and to allow calculation of the specific activity of the cells. After incubation, non-adherent cells were removed with four separate washes from the four poles of the well with 37° C. HBSS as previously described (Pryce et al, 1994: Adamson et al., 1999). Adherent PLNC were lysed with 2% SDS, the lysate removed, scintillant added and radioactivity quantitated by spectrometry. Results are expressed as the means±SEM between groups determined by Student's t-test."}, "[2]": {"conditions": "mice, daily injections of 25 mg/kg i.p.; cited from earlier work"}, "Rho protein": {"test_system": "Rho protein", "assay": "Rho protein association with brain endothelial cell membranes (Western blot)", "format": "cell-based, rat", "conditions": "C3-transferase treatment of brain endothelial cells", "protocol": "as §1\nIce-cold lysis buffer containing 10 mM Tris-HCl pH7.5, 5 mM MgCl2, 1 mM DTT and 1 mM PMSF was added to cells and incubated on ice for 10 min. Cells were subsequently homogenised and centrifuged at 5000 g for 10 min to remove nuclei. Supernatants were then centrifuged at 100,000 g in a Beckman Ultracentrifuge for 30 min to obtain crude membranes. Membrane pellets were washed with buffer containing 50 mM Tris-HCl pH7.5, 50 mM NaCl, 5 mM MgCl2, 1 mM DTT and 1 mM PMSF and re-centrifuged at 100,000 g for 30 min. Membrane pellets were then resuspended in sample buffer and proteins resolved on 12.5% SDS-PAGE gels. Proteins were electroblotted on nitrocellulose membranes and immunblotted with anti-Rho polyclonal antibody (Santa Cruz, Wilts, UK). Rho proteins within membrane fractions were visualised following incubation with a 1:15,000 dilution of goat anti-rabbit-HRP (Pierce, Chester, UK) and ECL development (Amersham, Bucks,UK).\nIsoprenylation of Rho proteins are essential for their efficient association with cell membranes (Adamson et al, 1992)."}, "[3]": {"conditions": "10 μM, brain EC treated 24 h prior to and during 4 h co-culture, mean±SEM"}, "[4]": {"conditions": "10 μM, brain EC treated 48 h prior to and during 4 h co-culture, mean±SEM"}, "[5]": {"conditions": "24 h treatment plus 90 min adhesion assay"}, "[6]": {"conditions": "48 h treatment plus 90 min adhesion assay"}}}
{"compound": "COC(=O)[C@H](CCSC)NC(=O)c1ccc(NC[C@@H](N)CS)cc1-c1ccccc1", "note": "[FTI-277]", "values": [{"measurement": "transendothelial lymphocyte migration", "setting": "[1]; [3]", "value": "did not result in a significant alteration"}, {"measurement": "transendothelial lymphocyte migration", "setting": "[1]; [4]", "value": "77.7±4.9 % of control migration"}, {"measurement": "T-lymphocyte adhesion to brain endothelial cells", "setting": "brain endothelial cells; [5]", "value": "did not have any significant effect"}, {"measurement": "T-lymphocyte adhesion to brain endothelial cells", "setting": "brain endothelial cells; [6]", "value": "did not have any significant effect"}, {"measurement": "time required to obtain steady state plasma concentrations", "setting": "[2]", "value": 3, "unit": "days"}]}
{"compound": "COC(=O)[C@H](CC(C)C)NC(=O)c1ccc(NC[C@@H](N)CS)cc1-c1cccc2ccccc12", "note": "[GGTI-298]", "values": [{"measurement": "transendothelial lymphocyte migration", "setting": "[1]; [3]", "value": "73.5±6.0 % of control migration"}, {"measurement": "transendothelial lymphocyte migration", "setting": "[1]; [4]", "value": "51.6±3.1 % of control migration"}, {"measurement": "T-lymphocyte adhesion to brain endothelial cells", "setting": "brain endothelial cells; [5]", "value": "did not have any significant effect"}, {"measurement": "T-lymphocyte adhesion to brain endothelial cells", "setting": "brain endothelial cells; [6]", "value": "did not have any significant effect"}]}
{"compound": "C3 transferase", "values": [{"measurement": "transendothelial lymphocyte migration", "setting": "[1]; C3 transferase treatment of brain EC, n=12", "value": "18.4±4.1 % of control values"}, {"measurement": "subcellular distribution of Rho proteins", "setting": "Rho protein", "value": "did not affect"}]}
